In US20210196714A1, “COMPOSITIONS AND METHODS FOR TREATING DISORDERS CHARACTERIZED WITH ABERRANT RAS/MAPK SIGNALING” (Duke University, priority 2018, published 2021):
Entries after “also recorded” stand apart in the source; their conditions may differ.

Tested on: kmt2d CRISPR mosaic mutants (F0)
Assay: CE defects in kmt2d-CRISPR F0 mutants
Assay type: in vivo, zebrafish
Details: kmt2d-CRISPR F0, 100 nM; listed as dmDf
Description: Prior and current genetic zebrafish models of KS focused on the newly discovered rap1a/rap1b genes. However, from the perspective of clinical utility, dmDf should be efficacious in kmt2d mutants, since loss of function mutations of the human ortholog account for as much as 75% of KS (see, Ng, S. B. et al. Nat Genet 42, 790-3 (2010); Li, Y. et al. Hum Genet 130, 715-24 (2011); Lu, J., Mo, G., Ling, Y. & Ji, L. Mol Med Rep 14, 3641-5 (2016); Miyake, N. et al. Am J Med Genet A 161a, 2234-43 (2013)). Therefore, experiments supplemented the testing tools by creating a kmt2d CRISPR/Cas9 mutant. A guide RNA targeting exon 4 of kmt2d induced efficient (˜99%) Cas9-mediated genome editing (FIG. 8). […]
For convergence and extension (CE) phenotyping, embryos were scored as described (see, Leitch, C. C. et al. Nat Genet 40, 443-8 (2008)) at the 8-10 somite stage, and images were captured using an AZ100 microscope and NIS Elements software (Nikon). […] The distance between Meckel's (MK) and ceratohyal (CH) cartilages was measured on ventral bright field images with Image J (NIH). […] Fluorescence signal on embryo heads was imaged with the Nikon AZ100 microscope and DS-Qi1MC digital camera using […] Z-stacks to generate extended depth of focus images. Cell numbers were quantified using the ImageJ ICTN plugin (NIH). […]

CC(C)c1nc(-c2cccc(NS(=O)(=O)c3c(F)cccc3F)c2F)c(-c2ccnc(N)n2)s1 [Compound 8, desmethyl-Dabrafenib]
CE defects: ameliorates the CE defects; also recorded: ameliorated significantly
